In patent publication US12372525B2 (priority 2013, dated 2025):

Tests used:
[1] = molecular target: purified influenza H3N2 neuraminidase (Influenza A virus, UniProt O91745); assay type: biochemical
A/Perth/211/2001 WT = assay type: biochemical
seasonal flu = details: in vivo; cited from earlier work

Chain of purified influenza H3N2 neuraminidase (O91745 whole entry, looked up): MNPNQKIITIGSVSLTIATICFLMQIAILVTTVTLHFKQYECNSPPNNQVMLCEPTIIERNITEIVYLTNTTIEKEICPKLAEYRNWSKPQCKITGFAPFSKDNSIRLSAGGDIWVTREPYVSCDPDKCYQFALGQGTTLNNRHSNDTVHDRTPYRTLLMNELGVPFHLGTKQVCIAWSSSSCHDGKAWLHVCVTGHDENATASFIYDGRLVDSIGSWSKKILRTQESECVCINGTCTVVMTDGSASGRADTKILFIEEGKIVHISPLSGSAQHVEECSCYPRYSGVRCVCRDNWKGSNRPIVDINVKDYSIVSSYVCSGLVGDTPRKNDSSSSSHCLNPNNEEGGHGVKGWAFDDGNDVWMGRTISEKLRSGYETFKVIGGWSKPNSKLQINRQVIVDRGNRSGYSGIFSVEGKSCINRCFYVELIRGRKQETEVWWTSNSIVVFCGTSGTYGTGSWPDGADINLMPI

Row | Compound | level of detection (LOD) of neuraminidase with this substrate [1] | Inhibition value (A/Perth/211/2001 WT) | effective in prophylaxis against seasonal flu (seasonal flu) [%]
1 | CC(=O)NC1C(O)CC(Oc2ccc(CCC(=O)C(F)(F)F)cc2)(C(=O)[O-])OC1C(O)C(O)CO.[Na+] (stereo not shown) [NANA-CF3] | about 10 pM | – | –
2 | CCOC(=O)C1=C[C@@H](OC(CC)CC)[C@H](NC(C)=O)[C@@H](N)C1 [Oseltamivir] | – | 1.48/1.34 | 80
3 | CC(=O)N[C@H]1[C@H]([C@H](O)[C@H](O)CO)OC(C(=O)O)=C[C@@H]1N=C(N)N [Zanamivir] | – | – | 80
